Where “and” joins values, the source holds several entries; their conditions need not be identical. Equal entries are not always repeated. Where two headings read alike, the source gives them in different places.
Columns and labels:
[1] = test system: Intracellular adenosine; assay: In vivo effect on adenosine levels in various rat tissues; set-up: species or system Fischer 344 rats
Procedure: Folinic acid (50 mg/kg) was administered intraperitoneally once daily for fourteen days. […] Hearts were removed from animals and flash frozen in liquid nitrogen with 10 s of death. Liver and lungs were removed en bloc and flash frozen with […]. Brain tissue was subsequently dissected.

[2] = Particle size of jet-milled and spray-dried anhydrous DHEA-S (Malvern Mastersizer X, light microscope); format: physicochemical; conditions: spray dried material, two batches
Procedure: Approximately 1 g sample was passed through the jet mill, once, and approximately 2 g sample were passed through the jet mill twice. […] The resulting solution was sonicated for 3 minutes and appeared fully dispersed. The dispersed solutions were tested on a Malvern Mastersizer X with a small volume sampler (SVS) attachment. One sample of dispersed material was tested 5 times. The median particle size or D (v, 0.5) of unmilled material was 52.56 μm and the % RSD (relative standard deviation) was 7.61 for the 5 values. The D (v, 0.5) for a single pass through the jet mill was 3.90 μm and the % RSD was 1.27, and the D (v, 0.5) from a double pass through the jet mill 3.25 μm and the % RSD was 3.10.
The solution was spray-dried with a B-191 Mini Spray-Drier (Buchi, Flawil, Switzerland) with an inlet temperature of 55° C., outlet temperature of 40° C., at 100% aspirator, at 10% pump, nitrogen flow at 40 mbar and spray flow at 600 units. The spray-dried product was suspended in hexane and Span85 surfactant added to reduce agglomeration. The dispersions were sonicated with cooling for 3-5 minutes for complete dispersion and the dispersed solutions tested on a Malvern Mastersizer X with a Small Volume Sampler (SVS) attachment. […] Visual examination by light microscope of the dispersions of each batch confirmed that spray drying produced small respirable size particles. […]

[3] = Nakagawa et al. 1981, 1982; cited from earlier work
[4] = test system: HT-29 SF cells; assay: DHEA effect on cell growth (Coulter counter); format: cell-based, human
[5] = test system: HT-29 SF cells; assay: DHEA effect on cell cycle distribution (flow cytometry); format: cell-based, human; conditions: 25, 50 or 200 μM DHEA; 24, 48, 72 hours
Procedure: Cells were plated at 10^5/60-mm dish in duplicate. […] Cultures were trypsinized following 0, 24, 48, or 74 hours and fixed and stained using a modification of a procedure of Bauer et al., Cancer Res. 46, 3173-3178 (1986). Briefly, cells were collected by centrifugation and resuspended in cold phosphate-buffered saline. Cells were fixed in 70% ethanol, washed, and resuspended in phosphate-buffered saline.
After 24, 48, and 72 hours, cells were harvested, fixed in ethanol, and stained with propidium iodide, and the DNA content/cell was determined by flow cytometric analysis. The percentage of cells in G1, S, and G2M phases was calculated using the Cellfit cell cycle analysis program. S phase is marked by a quadrangle for clarity. Representative histograms from duplicate determinations are shown. The experiment was repeated three times.

[6] = test system: HT-29 SF cells; assay: Reversal of DHEA effect on cell cycle by medium supplements; format: cell-based, human; conditions: 25 FM DHEA, with increasing exposure time
[7] = Solid-state stability with and without lactose (DHEA formation by HPLC); format: physicochemical; conditions: 1 week at 50° C., neat and lactose blend
Description: These conditions were used to stress the formulation in order to predict its long-term stability results. […] The primary degradant is DHEA. […] The materials on accelerated storage become more cohesive with time as evidenced by clumping during sample weighing for chemical analysis. […] This is a considerable disadvantage since lactose is the most commonly used inhalation excipient for dry powder formulations. Continuing with the virtually anhydrous form would mean limiting formulations to neat powder or undertaking more comprehensive safety studies to use a novel excipient.

[8] = test system: late asthmatic response; assay: Late asthmatic response in patients dosed with DHEA-S; format: in vivo; conditions: patients after five days of dosing
[9] = HPLC analysis of drug degradation during jet milling; format: physicochemical; conditions: HPLC peak area versus unmilled standard; single-pass and double-pass
Procedure: Two vials (A; single-pass; 150 mg) and (B double-pass; 600 mg) of the micronized drug were available for determining drug degradation during jet milling micronization. […] The chromatographic peak area for the HPLC assay of the unmilled drug standard solution (10 mg/ml) gave a value of 23,427. […] The chromatographic peak areas for vials A and B were 11,979 and 11,677, respectively.

[10] = Short-term solution stability of DHEA-S formulation; format: physicochemical
Procedure: Aliquots of this solution are filled into clear glass vials and stored at RT (24-26° C.) and at 40° C. The samples are checked daily for DHEA-S content, DHEA content, and appearance. For each time point, duplicate samples are withdrawn and diluted from each vial. […] The study is stopped on day three. […] The solution should easily be stable for the day of reconstitution in a clinical trial. The following section describes the aerosol properties of this formulation.

[11] = for solubility: range of triplicates
Description: The suspensions are then filtered through a 0.2 micron syringe filter and immediately diluted for HPLC analysis. To prepare refrigerated samples, the syringes and filters are stored in the refrigerator for at least one hour before use.

[12] = 0.12% NaCl (20 mM Cl^-)
Procedure: The nebulizer is filled with 5 mL of solution and nebulization is continued until the output became visually insignificant (4½ to 5 min.). Nebulizer solutions are tested using a California Instruments AS-6 6-stage impactor with a USP throat. The impactor is run at 30 L/min for 8 s to collect a sample following one minute of nebulization time. At all other times during the experiment, the aerosol is drawn through the by-pass collector at approximately 33 L/min. The collection apparatus, nebulizer, and impactor are rinsed with mobile phase and assayed by HPLC. […] This volume is selected as the practical upper limit for use in a clinical study.

Nc1nc(=O)c2c([nH]1)NCC(CNc1ccc(C(=O)N[C@@H](CCC(=O)O)C(=O)O)cc1)N2C=O (mixture of isomers) [Folinic Acid, Folinic acid]
effect on adenosine levels when administered alone ([1]; rats, folinic acid 50 mg/kg alone, all organs studied): increase in adenosine levels for all organs studied
effect of coadministration on steroid-mediated adenosine depletion ([1]; rats, folinic acid 50 mg/kg coadministered with DHEA or methyltestosterone): completely abrogated steroid-mediated adenosine depletion

C[C@]12CC[C@H](OS(=O)(=O)[O-])CC1=CC[C@@H]1[C@@H]2CC[C@]2(C)C(=O)CC[C@@H]12.[Na+] [Anhydrous DHEA-S]
mean particle size (Malvern Mastersizer X) [2]: 5.07±0.70 μm and 6.66±0.91 μm
mean particle size (light microscope) [2]: 2.4 μm and 2.0 μm
solid-state properties (in words) [3]: low crystallinity and is very hygroscopic

C[C@]12CC[C@H](O)CC1=CC[C@@H]1[C@@H]2CC[C@]2(C)C(=O)CC[C@@H]12 [DHEA, 3β-hydroxyandrost-5-en-17-one]
effect on tissue adenosine (in words) ([1]; rat, in vivo): multi-organ depletion of adenosine
effect on growth of HT-29 cells (in words) ([4]; 0-200 μM, 0-72 hours): time- and dose-dependent inhibition of growth
exposure time after which cell number was reduced compared to controls ([4]; 12.5 μM DHEA): 72 h
exposure time after which cell number was reduced compared to controls ([4]; 25 μM DHEA): 48 h
exposure time after which cell number was reduced compared to controls ([4]; 50 μM DHEA): 48 h
exposure time after which cell number was reduced compared to controls ([4]; 200 μM DHEA): 24 h
cell cycle effect (overall, in words) [5]: G1 block in HT-29 SF cells in a time- and dose-dependent manner
proportion of cells in S phase [6]: progressively reduced the proportion of cells in S phase

CC12CCC3C(CC=C4CC(OS(=O)(=O)[O-])CCC43C)C1CCC2=O.[Na+] (stereo not drawn) [DHEA-S dihydrate]
DHEA generated on storage (in words) [7]: virtually no DHEA generated

sodium dehydroepiandrostenone sulfate [DHEA-S]
reduction of the late asthmatic response [8]: 33%
degradation of the drug during jet milling micronization [9]: no detectable degradation
stability of nebulizer formulation ([10]; 7.5 mg/mL of DHEA-S in 0.12% NaCl): stable for at least one day at RT
appearance of solution on storage ([10]; 10 mg/mL in 0.12% NaCl, 40° C. (accelerated condition)): became cloudy after two days of storage
solubility ([11]; 0.9% NaCl, refrigerated (7-8° C.)): 1100 to 1300 µg/mL
Ksp ([11]; 15° C., interpolated versus reciprocal of absolute temperature): ~1316 mM^2
equilibrium constant Ksp ([11]; refrigerated (7-8° C.), slope of solubility versus reciprocal sodium cation concentration): 665 mM^2
solubility ([11]; ~25° C., 0% NaCl): 16500 to 17400 µg/mL
highest solution concentration that will not precipitate during nebulization [12]: approximately 7.5 mg/mL
solid-state properties (in words) [3]: most stable and crystalline as the dihydrate form
